# Laboratory results: patent publication US20100112061A1, “Monophosphates as Mutual Prodrugs of Muscarinic Receptor Antagonists and Beta-Agonists for the Treatment of COPD And Chronic Bronchitis” (priority 2006, published 2010)
# Columns and labels:
# alkaline phosphatase = alkaline phosphatase (Homo sapiens, UniProt P05187); assay: Conversion of the mutual MRA-β-agonist prodrug to salmeterol and MRA after exposure to alkaline phosphatase in vitro (LCMS); format: in vitro ADME; conditions: for Formation of dipeptide (Sagara 2006) in ALP (Peak Area Ratio) Normalized / Formation of dipeptide (Sagara 2006) in ALP (Peak Area Ratio) mean: from prodrug Example 29; for Formation of dipeptide (Sagara 2006) in ALP (Peak Area Ratio) Normalized / Formation of dipeptide (Sagara 2006) in ALP (Peak Area Ratio) mean / Example 29 (GS-343071) in ALP (Peak Area Ratio) Normalized / Example 29 (GS-343071) in ALP (Peak Area Ratio) mean: alkaline phosphatase
# Method: Conversion of the Mutual MRA-β-Agonist Prodrug (Described in Example 29) to Salmeterol and MRA after Exposure to Alkaline Phosphatase In Vitro
# (§1) Reaction Buffer (pH 7.4, 5 mM tris/1 mM Mg^2+/1 mM Zn^2+)
# (§2) Diluted 5 ml of 50 mM tris stock, 1 ml of 50 mM MgCl2 stock, and 1 ml of ZnCl2 and then stocked to 10 ml with water.
# Alkaline Phosphatase Stock Solution […]
# Dissolved ˜2 mg of the mutual prodrug of invention in 10 ml 1:1 acetonitrile/water.
# Reaction Product Stock Solution
# Dissolved ˜2 mg of each MRA and β-agonist in 20 ml 1:1 acetonitrile/water
# The stock solutions were mixed in microcentrifuge tubes, as depicted in the following Table:
# The heat block was set at the 37 degrees. Then 0.5 mL of alkaline phosphatase solution was added into 4 preheated Eppendorf tubes. The aliquot 0.5 of prodrug and drug standards were added into preheated Eppendorf tubes. Immediately after vortexing the aliquots of 25 μL of the all reaction solutions were made into the respective 96-well plate positions. The internal standard (75 μl of 500 ng/mL Glyburide) was added into all samples after each aliquots. That procedure was repeated at every 15 minute intervals for ˜4-5 hrs.
# The 96-well plates were then analyzed using the LCMS technique.
# Half Life Calculation (t1/2)
# (§3) In the calculation of half life, we assumed that the disappearance of the mutual prodrug of this invention followed first order kinetics. Therefore,
# (§4) The area peak ratio of prodrug vs IS was plotted against time first; the peak area ratios of later time points were normalized with the peak area ratio of initial time point (ASAP). The natural log of the normalized ratio was then plotted against time to generate a linear curve. The slope of this linear curve k was used for the following calculation.
# Graphic plotted rate constant of loss K
# Drug Concentration Determination
# Drug concentrations are calculated by normalizing the peak area ration to (t 0). Thus, calculated drug concentrations at any time point=normalized peak area ratio [t (0) mean/t mean]×initial drug concentration. Data (normalized peak area ratio) for the calculations of drug concentrations are listed in Table 1 and 2 for compounds in Example 29 (GS343071), salmeterol, and the dipeptide (M3 antagonist prepared by Sagara 2006).
# [1] = Half life of the prodrug in reaction buffer only (no alkaline phosphatase); format: physicochemical; conditions: reaction buffer without alkaline phosphatase; reaction buffer pH 7.4, no alkaline phosphatase
# Method: as §1, §2
# The heat block was set at the 37 degrees. […] The aliquot […] of prodrug and drug standards were added into preheated Eppendorf tubes. Immediately after vortexing the aliquots of 25 μL of the all reaction solutions were made into the respective 96-well plate positions. The internal standard (75 μl of 500 ng/mL Glyburide) was added into all samples after each aliquots. That procedure was repeated at every 15 minute intervals for ˜4-5 hrs.
# as §3, §4
# alkaline phosphatase, sequence (P05187 23-506 limits assumed): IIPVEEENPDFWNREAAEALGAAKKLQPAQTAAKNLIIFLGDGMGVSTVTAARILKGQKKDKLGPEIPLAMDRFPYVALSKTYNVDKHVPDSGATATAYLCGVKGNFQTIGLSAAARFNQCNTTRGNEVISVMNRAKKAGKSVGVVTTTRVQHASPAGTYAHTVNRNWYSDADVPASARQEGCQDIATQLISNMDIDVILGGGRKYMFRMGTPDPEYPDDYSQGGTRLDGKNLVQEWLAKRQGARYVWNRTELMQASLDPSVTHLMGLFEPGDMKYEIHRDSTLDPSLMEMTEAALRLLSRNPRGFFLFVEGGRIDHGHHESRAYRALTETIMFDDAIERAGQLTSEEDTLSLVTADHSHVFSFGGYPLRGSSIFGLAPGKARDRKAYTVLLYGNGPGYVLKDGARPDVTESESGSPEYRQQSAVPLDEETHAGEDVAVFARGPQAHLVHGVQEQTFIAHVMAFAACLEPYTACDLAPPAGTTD
compound,measurement,setting,value
"CN1CCC(CNC(=O)[C@H]2CCCN2C(=O)[C@@H]2CC(O)CN2C(=O)CC(c2ccc(F)cc2)(c2ccc(F)cc2)c2ccc(F)cc2)CC1 (stereo partly drawn) [dipeptide (Sagara 2006), 1-{4-hydroxy-1-[3,3,3-tris-(4-fluoro-phenyl)-propionyl]-pyrrolidine-(S)-2-carbonyl}-pyrrolidine-(R)-2-carboxylic acid-(1-methyl-piperidin-4-ylmethyl)-amide, reference compound]",Formation of dipeptide (Sagara 2006) in ALP (Peak Area Ratio) Normalized,"alkaline phosphatase; Time 0 mins, 37 degrees",1.0000
same,Formation of dipeptide (Sagara 2006) in ALP (Peak Area Ratio) mean,"alkaline phosphatase; Time 0 mins, 37 degrees",0.1765
same,Formation of dipeptide (Sagara 2006) in ALP (Peak Area Ratio) Normalized,"alkaline phosphatase; Time 15.0 mins, 37 degrees",1.9830
same,Formation of dipeptide (Sagara 2006) in ALP (Peak Area Ratio) mean,"alkaline phosphatase; Time 15.0 mins, 37 degrees",0.3500
same,Formation of dipeptide (Sagara 2006) in ALP (Peak Area Ratio) Normalized,"alkaline phosphatase; Time 30.0 mins, 37 degrees",2.7365
same,Formation of dipeptide (Sagara 2006) in ALP (Peak Area Ratio) mean,"alkaline phosphatase; Time 30.0 mins, 37 degrees",0.4830
same,Formation of dipeptide (Sagara 2006) in ALP (Peak Area Ratio) Normalized,"alkaline phosphatase; Time 45.0 mins, 37 degrees",2.7989
same,Formation of dipeptide (Sagara 2006) in ALP (Peak Area Ratio) mean,"alkaline phosphatase; Time 45.0 mins, 37 degrees",0.4940
same,Formation of dipeptide (Sagara 2006) in ALP (Peak Area Ratio) Normalized,"alkaline phosphatase; Time 60.0 mins, 37 degrees",3.0595
same,Formation of dipeptide (Sagara 2006) in ALP (Peak Area Ratio) mean,"alkaline phosphatase; Time 60.0 mins, 37 degrees",0.5400
same,Formation of dipeptide (Sagara 2006) in ALP (Peak Area Ratio) Normalized,"alkaline phosphatase; Time 75.0 mins, 37 degrees",3.2210
same,Formation of dipeptide (Sagara 2006) in ALP (Peak Area Ratio) mean,"alkaline phosphatase; Time 75.0 mins, 37 degrees",0.5685
same,Formation of dipeptide (Sagara 2006) in ALP (Peak Area Ratio) Normalized,"alkaline phosphatase; Time 90.0 mins, 37 degrees",3.6402
same,Formation of dipeptide (Sagara 2006) in ALP (Peak Area Ratio) mean,"alkaline phosphatase; Time 90.0 mins, 37 degrees",0.6425
same,Formation of dipeptide (Sagara 2006) in ALP (Peak Area Ratio) Normalized,"alkaline phosphatase; Time 105 mins, 37 degrees",3.8612
same,Formation of dipeptide (Sagara 2006) in ALP (Peak Area Ratio) mean,"alkaline phosphatase; Time 105 mins, 37 degrees",0.6815
same,Formation of dipeptide (Sagara 2006) in ALP (Peak Area Ratio) Normalized,"alkaline phosphatase; Time 120 mins, 37 degrees",3.9207
same,Formation of dipeptide (Sagara 2006) in ALP (Peak Area Ratio) mean,"alkaline phosphatase; Time 120 mins, 37 degrees",0.6920
same,Formation of dipeptide (Sagara 2006) in ALP (Peak Area Ratio) Normalized,"alkaline phosphatase; Time 135 mins, 37 degrees",4.0793
same,Formation of dipeptide (Sagara 2006) in ALP (Peak Area Ratio) mean,"alkaline phosphatase; Time 135 mins, 37 degrees",0.7200
same,Formation of dipeptide (Sagara 2006) in ALP (Peak Area Ratio) Normalized,"alkaline phosphatase; Time 150 mins, 37 degrees",4.2890
same,Formation of dipeptide (Sagara 2006) in ALP (Peak Area Ratio) mean,"alkaline phosphatase; Time 150 mins, 37 degrees",0.7570
same,Formation of dipeptide (Sagara 2006) in ALP (Peak Area Ratio) Normalized,"alkaline phosphatase; Time 165 mins, 37 degrees",4.4193
same,Formation of dipeptide (Sagara 2006) in ALP (Peak Area Ratio) mean,"alkaline phosphatase; Time 165 mins, 37 degrees",0.7800
same,Formation of dipeptide (Sagara 2006) in ALP (Peak Area Ratio) Normalized,"alkaline phosphatase; Time 180 mins, 37 degrees",4.7082
same,Formation of dipeptide (Sagara 2006) in ALP (Peak Area Ratio) mean,"alkaline phosphatase; Time 180 mins, 37 degrees",0.8310
same,Formation of dipeptide (Sagara 2006) in ALP (Peak Area Ratio) Normalized,"alkaline phosphatase; Time 210 mins, 37 degrees",5.0227
same,Formation of dipeptide (Sagara 2006) in ALP (Peak Area Ratio) mean,"alkaline phosphatase; Time 210 mins, 37 degrees",0.8865
same,Formation of dipeptide (Sagara 2006) in ALP (Peak Area Ratio) Normalized,"alkaline phosphatase; Time 240 mins, 37 degrees",5.0567
same,Formation of dipeptide (Sagara 2006) in ALP (Peak Area Ratio) mean,"alkaline phosphatase; Time 240 mins, 37 degrees",0.8925
same,Formation of dipeptide (Sagara 2006) in ALP (Peak Area Ratio) Normalized,"alkaline phosphatase; Time 270 mins, 37 degrees",5.6997
same,Formation of dipeptide (Sagara 2006) in ALP (Peak Area Ratio) mean,"alkaline phosphatase; Time 270 mins, 37 degrees",1.0060
"C[N+]1(Cc2cc(C(O)CNCCCCCCOCCCCc3ccccc3)ccc2OP(=O)(O)O)CCC(CNC(=O)[C@H]2CCCN2C(=O)[C@@H]2C[C@@H](O)CN2C(=O)CC(c2ccc(F)cc2)(c2ccc(F)cc2)c2ccc(F)cc2)CC1 (stereo partly drawn) [Example 29, 1-(5-{1-Hydroxy-2-[6-(4-phenyl-butoxy)-hexylamino]-ethyl}-2-phosphonooxy-benzyl)-4-{[(1-{4-hydroxy-1-[3,3,3-tris-(4-fluoro-phenyl)-propionyl]-pyrrolidine-(S)-2-carbonyl}-pyrrolidine-(R)-2-carbonyl)-amino]-methyl}-1-methyl-piperidinium]",half-life,[1],12.8 h
same,Half Life t1/2,"alkaline phosphatase; ALP Enzyme Conc. 0.224 mg/mL, 37 degrees, first order kinetics assumed",1.58 h
same,Calculated Compound Final Conc. (μM) at 270 mins.,"alkaline phosphatase; Added Compound Initial Conc. 86.6 μM in Reaction Mixture, ALP Enzyme Conc. 0.443 mg/mL",7.8 µM
same,Example 29 (GS-343071) in ALP (Peak Area Ratio) Normalized,"alkaline phosphatase; Time 0 mins, 37 degrees",1.0000
same,Example 29 (GS-343071) in ALP (Peak Area Ratio) mean,"alkaline phosphatase; Time 0 mins, 37 degrees",0.2030
same,Example 29 (GS-343071) in ALP (Peak Area Ratio) Normalized,"alkaline phosphatase; Time 15.0 mins, 37 degrees",0.5887
same,Example 29 (GS-343071) in ALP (Peak Area Ratio) mean,"alkaline phosphatase; Time 15.0 mins, 37 degrees",0.1195
same,Example 29 (GS-343071) in ALP (Peak Area Ratio) Normalized,"alkaline phosphatase; Time 30.0 mins, 37 degrees",0.4340
same,Example 29 (GS-343071) in ALP (Peak Area Ratio) mean,"alkaline phosphatase; Time 30.0 mins, 37 degrees",0.0881
same,Example 29 (GS-343071) in ALP (Peak Area Ratio) Normalized,"alkaline phosphatase; Time 45.0 mins, 37 degrees",0.3313
same,Example 29 (GS-343071) in ALP (Peak Area Ratio) mean,"alkaline phosphatase; Time 45.0 mins, 37 degrees",0.0673
same,Example 29 (GS-343071) in ALP (Peak Area Ratio) Normalized,"alkaline phosphatase; Time 60.0 mins, 37 degrees",0.2850
same,Example 29 (GS-343071) in ALP (Peak Area Ratio) mean,"alkaline phosphatase; Time 60.0 mins, 37 degrees",0.0579
same,Example 29 (GS-343071) in ALP (Peak Area Ratio) Normalized,"alkaline phosphatase; Time 75.0 mins, 37 degrees",0.2387
same,Example 29 (GS-343071) in ALP (Peak Area Ratio) mean,"alkaline phosphatase; Time 75.0 mins, 37 degrees",0.0485
same,Example 29 (GS-343071) in ALP (Peak Area Ratio) Normalized,"alkaline phosphatase; Time 90.0 mins, 37 degrees",0.2079
same,Example 29 (GS-343071) in ALP (Peak Area Ratio) mean,"alkaline phosphatase; Time 90.0 mins, 37 degrees",0.0422
same,Example 29 (GS-343071) in ALP (Peak Area Ratio) Normalized,"alkaline phosphatase; Time 105 mins, 37 degrees",0.2017
same,Example 29 (GS-343071) in ALP (Peak Area Ratio) mean,"alkaline phosphatase; Time 105 mins, 37 degrees",0.0410
same,Example 29 (GS-343071) in ALP (Peak Area Ratio) Normalized,"alkaline phosphatase; Time 120 mins, 37 degrees",0.1788
same,Example 29 (GS-343071) in ALP (Peak Area Ratio) mean,"alkaline phosphatase; Time 120 mins, 37 degrees",0.0363
same,Example 29 (GS-343071) in ALP (Peak Area Ratio) Normalized,"alkaline phosphatase; Time 135 mins, 37 degrees",0.1643
same,Example 29 (GS-343071) in ALP (Peak Area Ratio) mean,"alkaline phosphatase; Time 135 mins, 37 degrees",0.0334
same,Example 29 (GS-343071) in ALP (Peak Area Ratio) Normalized,"alkaline phosphatase; Time 150 mins, 37 degrees",0.1397
same,Example 29 (GS-343071) in ALP (Peak Area Ratio) mean,"alkaline phosphatase; Time 150 mins, 37 degrees",0.0284
same,Example 29 (GS-343071) in ALP (Peak Area Ratio) Normalized,"alkaline phosphatase; Time 165 mins, 37 degrees",0.1310
same,Example 29 (GS-343071) in ALP (Peak Area Ratio) mean,"alkaline phosphatase; Time 165 mins, 37 degrees",0.0266
same,Example 29 (GS-343071) in ALP (Peak Area Ratio) Normalized,"alkaline phosphatase; Time 180 mins, 37 degrees",0.1372
same,Example 29 (GS-343071) in ALP (Peak Area Ratio) mean,"alkaline phosphatase; Time 180 mins, 37 degrees",0.0279
same,Example 29 (GS-343071) in ALP (Peak Area Ratio) Normalized,"alkaline phosphatase; Time 210 mins, 37 degrees",0.1163
same,Example 29 (GS-343071) in ALP (Peak Area Ratio) mean,"alkaline phosphatase; Time 210 mins, 37 degrees",0.0236
same,Example 29 (GS-343071) in ALP (Peak Area Ratio) Normalized,"alkaline phosphatase; Time 240 mins, 37 degrees",0.0978
same,Example 29 (GS-343071) in ALP (Peak Area Ratio) mean,"alkaline phosphatase; Time 240 mins, 37 degrees",0.0199
same,Example 29 (GS-343071) in ALP (Peak Area Ratio) Normalized,"alkaline phosphatase; Time 270 mins, 37 degrees",0.0906
same,Example 29 (GS-343071) in ALP (Peak Area Ratio) mean,"alkaline phosphatase; Time 270 mins, 37 degrees",0.0184
same,half-life,"alkaline phosphatase; human, pH 7.4, ALP Enzyme Conc. 0.224 mg/mL, 37 degrees, first order kinetics assumed, read-out: Half Life t1/2",1.04 h
same,half-life at 86.6 μM,"alkaline phosphatase; human, pH 7.4, ALP Enzyme Conc. 0.443 mg/mL, 37 degrees, first order kinetics assumed, read-out: Half Life t1/2",0.72 h
